Key:
Hep G2 = test: Cell Titer-Glo viability, Hepatocellular cancer; assay type: cell-based
Experimental: (§1) OGM2 kills wide variety of cancer cell types. Cell sensitivity can be classified in to Very Sensitive (LC50<2 μM), Sensitive (LC50=2 to 10 μM), Mildly Sensitive (LC50>10 μM), and Refractory (no killing at 10 μM). The listed established cell were incubated with OGM2 at 2 μM or 10 μM for 72 hours under standard cell culture conditions, and relative cell number was assessed using Cell Titer-Glo Luminescent Cell Viability Assay (Promega™) following the manufacturer's instructions. Luminescence was determined using a Cytation 5 reader and Gen5 software package (BioTek™).
(§2) Cancer cells, which are very sensitive to killing by OGM2 (LCs <2 μM), with reported mRNA expression of GPR68 and the related proton sensing receptor GPR4. LC50's (concentrations causing 50% lethality) were determined using CellTiter-Glo (Promega™, G7570). Cells were plated in 12-well plates (CELLTREAT Scientific Products, 229112) in 1 ml of DMEM with high glucose, GlutaMAX, HEPES, or RPMI 1640 with Penicillin-Streptomycin (ThermoFisher™, 10564029, 11875119 and 15140122) and 10% FBS. Cells were incubated overnight at 37° C. in 5% CO2. Then 1 mL of fresh media was added with DMSO, OGM, or positive control (Erastin; APExBIO Technology, LLC, B1524) and cells incubated for 3 days. On the third day, all media was removed, cells were rinsed with 1×PBS, PBS was removed, and 200 μL of 1× Passive Lysis Buffer (Promega™, E1941) was added to each well. […]. Subsequently, 20 μL of lysate was added to 100 μL CellTiter-Glo™ reagent on a LUMITRAC 200 plate (Greiner™ bio-one, 82050-726). Plates were briefly spun down and read on a GloMax-Multi Detection System (Promega™).
(§3) The cells listed in the tables above were incubated with OGM2 at 2 μM or 10 μM for 72 hours under standard cell culture conditions, and relative cell number was assessed using Cell Titer-Glo Luminescent Cell Viability Assay (Promega™) following the manufacturer's instructions. Luminescence was determined using a Cytation 5 reader and Gen5 software package (BioTek™). RNA expression of GPR68 and GPR4 in the corresponding cancer cell lines are listed, according to the publicly available The Human Protein Atlas version 22.0 and Ensembl version 103.38 (see proteinatlas.org). The consensus normalized expression value (“nTPM”=normalize transcript per million) was calculated as the maximum nTPM value for each gene in the two data sources.

K-562 = test: Cell Titer-Glo viability, Chronic myelogenous leukemia; assay type: cell-based
Experimental: as §1, §2, §3

KIT = target: T1, KIT (Homo sapiens, UniProt P10721); test: KinomeScan; assay type: binding; details: read-out: % Control
T1 construct: purchased DiscoveRx

MST1R = target: T2, MST1R (Homo sapiens, UniProt Q04912); test: KinomeScan; assay type: binding; details: read-out: % Control
T2 construct: purchased DiscoveRx

PRKX = target: T3, PRKX (Homo sapiens, UniProt P51817); test: KinomeScan; assay type: binding; details: read-out: % Control
T3 construct: purchased DiscoveRx (Fremont, CA)

DRAK2 = target: T4, DRAK2 (Homo sapiens, UniProt O94768); test: KinomeScan; assay type: binding; details: read-out: % Control
T4 construct: purchased DiscoveRx (Fremont, CA), KinomeScan service

DAPK2 = target: T5, DAPK2 (Homo sapiens, UniProt Q9UIK4); test: KinomeScan; assay type: binding; details: read-out: % Control
T5 construct: purchased DiscoveRx (Fremont, CA), KinomeScan service

[1] = target: T6, JAK1(JH1domain-catalytic) (Homo sapiens, UniProt P23458); test: KinomeScan; assay type: binding; details: read-out: % Control
T6 construct: JAK1(JH1domain-catalytic); purchased DiscoveRx (Fremont, CA)

EPHA1 = target: T7, EPHA1 (Homo sapiens, UniProt P21709); test: KinomeScan; assay type: binding; details: read-out: % Control
T7 construct: purchased DiscoveRx (Fremont, CA)

ERK2 = target: T8, ERK2 (Homo sapiens, UniProt P28482); test: KinomeScan; assay type: binding; details: read-out: % Control
T8 construct: purchased DiscoveRx (Fremont, CA)

TNK2 = target: T9, TNK2 (Homo sapiens, UniProt Q07912); test: KinomeScan; assay type: binding; details: read-out: % Control
T9 construct: purchased DiscoveRx (Fremont, CA)

CDKL3 = CDKL3 (Homo sapiens, UniProt Q8IVW4); test: KinomeScan; assay type: binding; details: read-out: % Control
GRK4 = target: T10, GRK4 (Homo sapiens, UniProt P32298); test: KinomeScan; assay type: binding; details: read-out: % Control
T10 construct: purchased DiscoveRx (Fremont, CA)

ALK = target: T11, ALK (Homo sapiens, UniProt Q9UM73); test: KinomeScan; assay type: binding; details: read-out: % Control
T11 construct: purchased DiscoveRx (Fremont, CA)

[2] = target: T12, RPS6KA5(Kin.Dom.2-C-terminal) (Homo sapiens, UniProt O75582); test: KinomeScan; assay type: binding; details: read-out: % Control
T12 construct: RPS6KA5(Kin.Dom.2-C-terminal); purchased DiscoveRx (Fremont, CA)

JNK1 = target: T13, JNK1 (Homo sapiens, UniProt P45983); test: KinomeScan; assay type: binding; details: read-out: % Control
T13 construct: purchased DiscoveRx

CSNK1G2 = CSNK1G2 (Homo sapiens, UniProt P78368); test: KinomeScan; assay type: binding; details: read-out: % Control
MERTK = target: T14, MERTK (Homo sapiens, UniProt Q12866); test: KinomeScan; assay type: binding; details: read-out: % Control
T14 construct: purchased DiscoveRx (Fremont, CA)

PIK3CB = target: T15, PIK3CB (Homo sapiens, UniProt P42338); test: KinomeScan; assay type: binding; details: read-out: % Control
T15 construct: purchased DiscoveRx (Fremont, CA)

FP = target: T16, FP (Homo sapiens, UniProt P43088); test: GPCR Profiler; assay type: cell-based
T16 construct: host or cells: Chem-1 cells expressing Gα15

ZAP70 = target: T17, ZAP70 (Homo sapiens, UniProt P43403); test: KinomeScan; assay type: binding; details: read-out: % Control
T17 construct: purchased DiscoveRx

EPHB2 = target: T18, EPHB2 (Homo sapiens, UniProt P29323); test: KinomeScan; assay type: binding; details: read-out: % Control
T18 construct: purchased DiscoveRx (Fremont, CA)

PKNB(M. tuberculosis) = target: T19, PKNB(M. tuberculosis) (Mycobacterium tuberculosis, UniProt P9WI81); test: KinomeScan; assay type: binding; details: read-out: % Control
T19 construct: purchased DiscoveRx (Fremont, CA)

CSNK1A1 = CSNK1A1 (Homo sapiens, UniProt P48729); test: KinomeScan; assay type: binding; details: read-out: % Control
CSNK1A1, sequence (P48729 whole entry): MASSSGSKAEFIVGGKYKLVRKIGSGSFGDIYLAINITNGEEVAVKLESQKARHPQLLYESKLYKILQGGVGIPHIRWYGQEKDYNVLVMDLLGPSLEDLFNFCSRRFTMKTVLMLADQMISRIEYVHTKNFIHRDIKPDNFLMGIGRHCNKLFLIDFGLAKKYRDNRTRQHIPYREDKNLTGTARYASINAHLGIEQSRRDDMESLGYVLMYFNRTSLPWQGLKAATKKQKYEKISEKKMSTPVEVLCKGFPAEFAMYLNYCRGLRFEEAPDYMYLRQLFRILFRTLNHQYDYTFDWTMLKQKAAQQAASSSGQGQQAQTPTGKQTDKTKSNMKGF

T16 sequence (P43088 whole entry): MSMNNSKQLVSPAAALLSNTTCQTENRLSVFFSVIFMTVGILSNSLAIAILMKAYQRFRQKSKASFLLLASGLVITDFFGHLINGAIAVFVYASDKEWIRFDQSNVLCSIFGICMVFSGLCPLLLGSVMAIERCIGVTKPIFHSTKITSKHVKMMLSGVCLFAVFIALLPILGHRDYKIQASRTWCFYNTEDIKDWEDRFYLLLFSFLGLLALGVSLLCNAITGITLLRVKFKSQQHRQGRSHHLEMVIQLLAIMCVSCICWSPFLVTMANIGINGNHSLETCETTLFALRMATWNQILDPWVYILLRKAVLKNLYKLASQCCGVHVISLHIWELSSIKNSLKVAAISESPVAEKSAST
T4 sequence (O94768 whole entry): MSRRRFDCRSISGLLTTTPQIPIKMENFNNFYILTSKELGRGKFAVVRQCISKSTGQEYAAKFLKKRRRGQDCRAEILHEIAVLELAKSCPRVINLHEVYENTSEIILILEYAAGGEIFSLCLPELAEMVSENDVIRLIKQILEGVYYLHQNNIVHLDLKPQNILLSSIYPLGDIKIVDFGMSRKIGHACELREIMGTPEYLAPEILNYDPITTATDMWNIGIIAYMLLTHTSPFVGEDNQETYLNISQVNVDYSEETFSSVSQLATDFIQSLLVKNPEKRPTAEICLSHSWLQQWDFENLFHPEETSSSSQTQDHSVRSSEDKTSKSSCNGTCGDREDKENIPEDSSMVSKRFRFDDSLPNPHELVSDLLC
T14 sequence (Q12866 21-999): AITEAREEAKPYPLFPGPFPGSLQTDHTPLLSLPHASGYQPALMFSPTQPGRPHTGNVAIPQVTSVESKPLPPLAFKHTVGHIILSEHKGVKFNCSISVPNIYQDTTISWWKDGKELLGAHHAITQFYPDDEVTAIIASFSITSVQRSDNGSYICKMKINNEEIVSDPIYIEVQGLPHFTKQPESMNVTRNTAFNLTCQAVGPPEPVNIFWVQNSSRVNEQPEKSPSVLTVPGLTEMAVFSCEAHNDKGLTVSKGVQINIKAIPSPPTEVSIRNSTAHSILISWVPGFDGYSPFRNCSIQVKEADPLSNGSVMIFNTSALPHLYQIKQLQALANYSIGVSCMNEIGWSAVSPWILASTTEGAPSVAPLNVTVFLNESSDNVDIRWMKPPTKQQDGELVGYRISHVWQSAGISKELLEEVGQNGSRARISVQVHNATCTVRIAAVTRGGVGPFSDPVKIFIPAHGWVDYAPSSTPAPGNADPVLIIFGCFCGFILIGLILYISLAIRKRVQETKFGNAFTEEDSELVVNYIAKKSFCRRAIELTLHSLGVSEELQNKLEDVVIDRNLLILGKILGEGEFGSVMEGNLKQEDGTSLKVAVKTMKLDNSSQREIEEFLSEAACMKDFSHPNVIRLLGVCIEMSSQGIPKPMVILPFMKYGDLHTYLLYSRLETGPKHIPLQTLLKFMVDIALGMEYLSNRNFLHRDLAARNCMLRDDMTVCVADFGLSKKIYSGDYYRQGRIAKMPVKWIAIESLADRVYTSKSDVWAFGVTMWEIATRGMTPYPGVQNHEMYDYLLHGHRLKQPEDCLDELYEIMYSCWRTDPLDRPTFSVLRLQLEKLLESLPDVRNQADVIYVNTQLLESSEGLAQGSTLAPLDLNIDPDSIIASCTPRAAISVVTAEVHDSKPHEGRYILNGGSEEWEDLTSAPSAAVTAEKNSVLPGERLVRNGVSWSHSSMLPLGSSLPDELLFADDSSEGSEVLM
T10 sequence (P32298 whole entry): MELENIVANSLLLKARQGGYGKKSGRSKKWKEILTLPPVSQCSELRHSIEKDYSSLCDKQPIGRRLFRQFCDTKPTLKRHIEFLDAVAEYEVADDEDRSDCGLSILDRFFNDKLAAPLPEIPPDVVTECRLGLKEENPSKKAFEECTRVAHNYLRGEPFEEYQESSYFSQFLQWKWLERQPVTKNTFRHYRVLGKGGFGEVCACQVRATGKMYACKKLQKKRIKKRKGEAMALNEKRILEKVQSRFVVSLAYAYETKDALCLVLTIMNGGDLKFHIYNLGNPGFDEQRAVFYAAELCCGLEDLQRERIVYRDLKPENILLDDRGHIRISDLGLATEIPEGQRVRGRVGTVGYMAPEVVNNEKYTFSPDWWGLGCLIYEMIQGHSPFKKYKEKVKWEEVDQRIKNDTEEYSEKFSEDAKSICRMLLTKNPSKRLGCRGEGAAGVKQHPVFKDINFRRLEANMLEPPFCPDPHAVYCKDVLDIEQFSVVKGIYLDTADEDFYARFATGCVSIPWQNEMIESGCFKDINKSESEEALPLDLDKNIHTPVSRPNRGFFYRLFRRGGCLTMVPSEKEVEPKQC
T17 sequence (P43403 whole entry): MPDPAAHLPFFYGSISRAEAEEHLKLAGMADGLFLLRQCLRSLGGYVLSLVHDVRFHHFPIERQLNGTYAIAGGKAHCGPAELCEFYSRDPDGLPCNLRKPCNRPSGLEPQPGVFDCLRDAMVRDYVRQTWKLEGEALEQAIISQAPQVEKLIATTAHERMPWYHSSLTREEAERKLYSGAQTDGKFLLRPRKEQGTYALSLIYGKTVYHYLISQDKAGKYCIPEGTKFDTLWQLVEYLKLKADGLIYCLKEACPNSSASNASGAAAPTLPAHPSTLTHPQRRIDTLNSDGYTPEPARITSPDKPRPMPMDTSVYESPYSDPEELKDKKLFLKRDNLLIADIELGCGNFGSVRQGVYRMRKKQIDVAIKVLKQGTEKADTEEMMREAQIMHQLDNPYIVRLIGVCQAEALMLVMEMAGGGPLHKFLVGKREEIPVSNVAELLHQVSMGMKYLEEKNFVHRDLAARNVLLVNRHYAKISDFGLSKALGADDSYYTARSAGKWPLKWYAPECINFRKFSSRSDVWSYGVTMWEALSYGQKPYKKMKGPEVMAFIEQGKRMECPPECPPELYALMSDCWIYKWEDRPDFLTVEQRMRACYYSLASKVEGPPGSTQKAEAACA
T3 sequence (P51817 whole entry): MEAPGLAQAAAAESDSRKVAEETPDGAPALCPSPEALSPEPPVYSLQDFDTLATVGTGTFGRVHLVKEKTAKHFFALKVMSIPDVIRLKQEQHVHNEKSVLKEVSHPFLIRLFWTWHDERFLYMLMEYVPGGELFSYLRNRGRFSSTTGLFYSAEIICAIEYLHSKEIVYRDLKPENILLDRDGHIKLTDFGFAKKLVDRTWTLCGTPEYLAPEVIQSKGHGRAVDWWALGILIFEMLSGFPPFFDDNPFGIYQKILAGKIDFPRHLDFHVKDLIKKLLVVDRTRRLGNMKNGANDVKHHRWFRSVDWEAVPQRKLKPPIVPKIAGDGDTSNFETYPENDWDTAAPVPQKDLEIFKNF
T9 sequence (Q07912 whole entry): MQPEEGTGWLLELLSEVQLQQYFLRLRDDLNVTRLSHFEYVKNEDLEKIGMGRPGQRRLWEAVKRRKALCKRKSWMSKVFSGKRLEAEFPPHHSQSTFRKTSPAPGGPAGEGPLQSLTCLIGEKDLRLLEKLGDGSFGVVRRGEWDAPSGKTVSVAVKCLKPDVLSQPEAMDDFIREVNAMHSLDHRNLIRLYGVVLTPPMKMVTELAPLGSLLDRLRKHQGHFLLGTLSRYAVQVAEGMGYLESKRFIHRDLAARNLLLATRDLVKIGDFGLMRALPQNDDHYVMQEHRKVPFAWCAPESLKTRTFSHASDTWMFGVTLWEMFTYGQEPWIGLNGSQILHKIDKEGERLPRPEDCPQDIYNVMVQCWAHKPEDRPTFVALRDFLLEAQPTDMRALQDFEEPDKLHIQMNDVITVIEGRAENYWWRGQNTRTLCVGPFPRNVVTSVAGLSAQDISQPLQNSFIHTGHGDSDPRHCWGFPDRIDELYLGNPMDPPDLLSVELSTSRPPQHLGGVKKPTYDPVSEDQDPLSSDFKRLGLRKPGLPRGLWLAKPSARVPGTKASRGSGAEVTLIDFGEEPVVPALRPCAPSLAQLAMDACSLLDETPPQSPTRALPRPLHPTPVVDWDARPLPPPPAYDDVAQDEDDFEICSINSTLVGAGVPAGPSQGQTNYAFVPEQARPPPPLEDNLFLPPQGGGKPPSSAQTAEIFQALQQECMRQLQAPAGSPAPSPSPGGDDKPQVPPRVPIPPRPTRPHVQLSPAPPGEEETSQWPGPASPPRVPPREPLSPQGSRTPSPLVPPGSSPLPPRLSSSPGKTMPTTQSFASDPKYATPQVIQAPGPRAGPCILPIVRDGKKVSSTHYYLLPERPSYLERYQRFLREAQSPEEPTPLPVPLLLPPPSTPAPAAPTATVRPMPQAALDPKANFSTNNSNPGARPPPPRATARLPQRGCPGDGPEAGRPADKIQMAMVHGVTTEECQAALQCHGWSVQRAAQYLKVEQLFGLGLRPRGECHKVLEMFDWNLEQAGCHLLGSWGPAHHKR
T8 sequence (P28482 whole entry): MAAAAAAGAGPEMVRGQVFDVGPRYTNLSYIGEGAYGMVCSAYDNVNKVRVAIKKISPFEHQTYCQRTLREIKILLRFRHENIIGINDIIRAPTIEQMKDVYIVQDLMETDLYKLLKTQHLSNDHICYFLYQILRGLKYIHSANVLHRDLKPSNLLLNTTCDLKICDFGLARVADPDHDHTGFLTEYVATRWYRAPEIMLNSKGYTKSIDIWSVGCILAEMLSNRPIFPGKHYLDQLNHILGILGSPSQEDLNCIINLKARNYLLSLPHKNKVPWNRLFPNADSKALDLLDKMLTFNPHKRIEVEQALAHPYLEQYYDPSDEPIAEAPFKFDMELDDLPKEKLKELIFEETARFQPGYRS

Compound: CCc1ccc2c(c1)C1(NN=C(c3ccccc3)S1)C(=O)N2 (stereo not shown) [OGM2]
- Class (Hep G2): Sensitive (Sensitive (LC50=2 to 10 μM))
- % Survival 2 μM OGM (Hep G2; 72 hours): 66.8%
- % Survival 10 μM OGM (Hep G2; 72 hours): 45.7%
- CC50 (Hep G2; Homo sapiens, HepG2, 72 hours, read-out: LC50 (the source's name)): 2 to 10 µM
- Class (K-562): Sensitive (Sensitive (LC50=2 to 10 μM))
- % Survival 2 μM OGM (K-562; 72 hours): 56.7%
- % Survival 10 μM OGM (K-562; 72 hours): 37.0%
- CC50 (K-562; Homo sapiens, K562, 72 hours, read-out: LC50 (the source's name)): 2 to 10 µM

Compound: CCc1ccc2c(c1)C1(NN=C(c3cccc4ccccc34)S1)C(=O)N2 (stereo not shown) [OGM1, 5-ethyl-5′-naphthalen-1-ylspiro[1H-indole-3,2′-3H-1,3,4-thiadiazole]-2-one]
- remaining binding at 10 µM (KIT): 79%
- remaining binding at 10 µM (MST1R): 86%
- remaining binding at 10 µM (PRKX): 98%
- remaining binding at 10 µM (DRAK2): 100%
- remaining binding at 10 µM (DAPK2): 89%
- remaining binding at 10 µM [1]: 59%
- remaining binding at 10 µM (EPHA1): 92%
- remaining binding at 10 µM (ERK2): 77%
- remaining binding at 10 µM (TNK2): 100%
- remaining binding at 10 µM (CDKL3): 100%
- remaining binding at 10 µM (GRK4): 96%
- remaining binding at 10 µM (ALK): 100%
- remaining binding at 10 µM [2]: 91%
- remaining binding at 10 µM (JNK1): 63%
- remaining binding at 10 µM (CSNK1G2): 100%
- remaining binding at 10 µM (MERTK): 80%
- remaining binding at 10 µM (PIK3CB): 100%
- Antagonism (FP; 10 uM): 8.9
- Agonism (FP; 12.5 uM): 0.9
- remaining binding at 10 µM (ZAP70): 73%
- remaining binding at 10 µM (EPHB2): 100%
- remaining binding at 10 µM (PKNB(M. tuberculosis)): 79%
- remaining binding at 10 µM (CSNK1A1): 75%
